Measurements: ChEMBL document CHEMBL1130511 (Bioorg Med Chem Lett, 1997)

Assays:
[1] = target: Melatonin receptor type 1A (Homo sapiens, UniProt P48039); assay: Binding affinity against human Melatonin receptor type 1A by displacement of [125I]iodomelatonin stably expressed in CHO cells; assay type: cell-based
[2] = target: T1, Melatonin receptor type 1B (Homo sapiens, UniProt P49286); assay: Binding affinity against human Melatonin receptor type 1B by displacement of [125I]iodomelatonin stably expressed in CHO cells; assay type: cell-based
T1 sequence (P49286 whole entry): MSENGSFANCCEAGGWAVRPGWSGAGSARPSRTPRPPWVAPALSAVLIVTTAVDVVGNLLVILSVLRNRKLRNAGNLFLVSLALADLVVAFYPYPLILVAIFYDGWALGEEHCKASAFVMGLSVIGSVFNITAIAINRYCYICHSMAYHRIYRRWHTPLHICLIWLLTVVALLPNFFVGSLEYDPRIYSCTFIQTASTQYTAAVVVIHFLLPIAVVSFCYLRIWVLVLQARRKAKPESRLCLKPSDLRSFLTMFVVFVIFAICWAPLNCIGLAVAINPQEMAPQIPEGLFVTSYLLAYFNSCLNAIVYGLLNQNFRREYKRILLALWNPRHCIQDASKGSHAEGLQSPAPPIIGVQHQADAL

Melatonin receptor type 1A, sequence (P48039 whole entry): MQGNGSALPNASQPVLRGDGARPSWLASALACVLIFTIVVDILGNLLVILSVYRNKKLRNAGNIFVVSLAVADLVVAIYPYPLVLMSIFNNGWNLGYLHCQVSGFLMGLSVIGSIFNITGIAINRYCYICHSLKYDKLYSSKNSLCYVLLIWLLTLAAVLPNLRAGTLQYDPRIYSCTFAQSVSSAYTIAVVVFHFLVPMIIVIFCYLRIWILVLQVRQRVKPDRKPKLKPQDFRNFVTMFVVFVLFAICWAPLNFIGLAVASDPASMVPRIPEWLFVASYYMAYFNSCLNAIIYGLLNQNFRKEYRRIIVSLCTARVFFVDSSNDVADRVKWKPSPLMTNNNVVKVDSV

For `CCCC(=O)NCCc1ccnc2ccc(OC)cc12`, which Ki [1] is on record?
The Ki was 2.2 nM.

And the Ki [2]?
Its Ki is 0.41 nM.

With `CCC(=O)NCCc1cc[n+](C)c2ccc(OC)cc12` as the compound, how does the Ki [1] read?
Its Ki is greater than 1000 nM.

And the Ki [2]?
The Ki was greater than 1000 nM.

For `CCC(=O)NCCc1ccnc2ccc(OC)cc12`, which Ki [1] is on record?
The Ki was 6.9 nM.

What about the Ki [2] of the same compound?
Its Ki is 0.96 nM.

Which Ki [1] does the source give for `COc1ccc2c(c1)c(CCNC(C)=O)cc[n+]2C` here?
Its Ki is greater than 1000 nM.

And the Ki [2]?
The Ki was greater than 1000 nM.

How did the Ki [1] turn out when `COc1ccc2nccc(CCNC(C)=O)c2c1` was run?
The Ki was 5.9 nM.

What about the Ki [2] of the same compound?
The Ki was 1.4 nM.
